Data reported in US20230085307A1, “PYRIDAZINONE COMPOUND AND HERBICIDE” (NISSAN CHEMICAL CORPORATION, priority 2019, published 2023).

What was measured:
southern crabgrass [1] = assay: Test Example 4: herbicidal effect by soil treatment (Table 19, symbol F); format: in vivo, southern crabgrass (Digitaria ciliaris)
Summary of the method: (§1)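 Emulsion of test compound, water-diluted to predetermined amount, sprayed on soil after sowing (seed depth ~1.5 cm, sterilized diluvial soil). Greenhouse, 25–30° C. Effect graded at three weeks post-spray.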

velvetleaf [2] = assay: Test Example 4: herbicidal effect by soil treatment (Table 19, symbol M); format: in vivo, velvetleaf (Abutilon theophrasti)
Summary of the method: as §1

windgrass = assay: Test Example 5: herbicidal effect by foliage application, plastic box (Table 20, symbol L); format: in vivo, windgrass (Apera spica-venti); conditions: foliage application
Summary of the method: (§2)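 Post-emergence foliar test in sterilized diluvial soil. Compound applied as water-diluted emulsion at a predetermined rate to 14-day-old plants; evaluation at three weeks.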

lambsquarters [3] = assay: Test Example 4: herbicidal effect by soil treatment (Table 19, symbol O); format: in vivo, lambsquarters (Chenopodium album)
Summary of the method: as §1

velvetleaf [4] = assay: Test Example 5: herbicidal effect by foliage application, plastic box (Table 20, symbol M); format: in vivo, velvetleaf (Abutilon theophrasti); conditions: foliage application
Summary of the method: as §2

barnyard grass [5] = assay: Test Example 3: herbicidal effect by foliage application, Wagner pot (Table 18, symbol H); format: in vivo, barnyard grass (Echinochloa crus-galli); conditions: 320 g/ha
Summary of the method: (§3)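 Plants were sown in alluvial soil held under 0.1–0.5 cm standing water and grown 14 days in a greenhouse at 25–30 °C. An emulsifiable formulation, water-diluted to the set dose, was then sprayed onto the foliage, and effects were scored three weeks later using previously defined criteria.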

rice flat sedge = assay: Test Example 3: herbicidal effect by foliage application, Wagner pot (Table 18, symbol E); format: in vivo, rice flat sedge (Cyperus iria); conditions: 320 g/ha
Summary of the method: as §3

lambsquarters [6] = assay: Test Example 5: herbicidal effect by foliage application, plastic box (Table 20, symbol O); format: in vivo, lambsquarters (Chenopodium album); conditions: foliage application
Summary of the method: as §2

Italian ryegrass [7] = assay: Test Example 5: herbicidal effect by foliage application, plastic box (Table 20, symbol K); format: in vivo, Italian ryegrass (Lolium multiflorum); conditions: foliage application
Summary of the method: as §2

blackgrass [8] = assay: Test Example 5: herbicidal effect by foliage application, plastic box (Table 20, symbol J); format: in vivo, blackgrass (Alopecurus myosuroides); conditions: foliage application
Summary of the method: as §2

redroot pigweed [9] = assay: Test Example 4: herbicidal effect by soil treatment (Table 19, symbol N); format: in vivo, redroot pigweed (Amaranthus retroflexus)
Summary of the method: as §1

Chinese sprangletop = assay: Test Example 3: herbicidal effect by foliage application, Wagner pot (Table 18, symbol D); format: in vivo, chinese sprangletop (Leptochloa chinensis); conditions: 320 g/ha
Summary of the method: as §3

barnyard grass [10] = assay: Test Example 5: herbicidal effect by foliage application, plastic box (Table 20, symbol H); format: in vivo, barnyard grass (Echinochloa crus-galli); conditions: foliage application
Summary of the method: as §2

redroot pigweed [11] = assay: Test Example 5: herbicidal effect by foliage application, plastic box (Table 20, symbol N); format: in vivo, redroot pigweed (Amaranthus retroflexus); conditions: foliage application, AAH 320 g/ha, three weeks after application
Summary of the method: as §2

green foxtail [12] = assay: Test Example 4: herbicidal effect by soil treatment (Table 19, symbol G); format: in vivo, green foxtail (Setaria viridis)
Summary of the method: as §1

Italian ryegrass [13] = assay: Test Example 4: herbicidal effect by soil treatment (Table 19, symbol K); format: in vivo, Italian ryegrass (Lolium multiflorum)
Summary of the method: as §1

wild oat [14] = assay: Test Example 4: herbicidal effect by soil treatment (Table 19, symbol I); format: in vivo, wild oat (Avena fatua)
Summary of the method: as §1

wild oat [15] = assay: Test Example 5: herbicidal effect by foliage application, plastic box (Table 20, symbol I); format: in vivo, wild oat (Avena fatua); conditions: foliage application
Summary of the method: as §2

southern crabgrass [16] = assay: Test Example 5: herbicidal effect by foliage application, plastic box (Table 20, symbol F); format: in vivo, southern crabgrass (Digitaria ciliaris); conditions: foliage application
Summary of the method: as §2

persian speedwell [17] = assay: Test Example 4: herbicidal effect by soil treatment (Table 19, symbol R); format: in vivo, Persian speedwell (Veronica persica)
Excerpt: [Test Example 4] Herbicidal Effect Test by Soil Treatment
Sterilized diluvial soil was placed in a plastic box having a length of 21 cm, a width of 13 cm, and a depth of 7 cm. The seeds of each of southern crabgrass, green foxtail, barnyard grass, wild oat, blackgrass, Italian ryegrass, windgrass, velvetleaf, redroot pigweed, lambsquarters, chickweed, false cleavers, persian speedwell, corn, soybean, rice, wheat, beet, and rapeseed were sowed in a spot-like manner and covered with the soil having a thickness of about 1.5 cm. Subsequently, the emulsion agent of the compound of the present invention prepared according to Formulation Example 2 was diluted with water so as to achieve a predetermined herbicide amount, and the diluted emulsion agent was uniformly applied to the surface of the soil with a small-sized spray. The plastic box was placed in a greenhouse at 25° C. to 30° C. for growth of the plants. Three weeks after the herbicide application, the effect of the herbicide on each plant was evaluated according to the criteria of Test Example 1.

chickweed [18] = assay: Test Example 4: herbicidal effect by soil treatment (Table 19, symbol P); format: in vivo, common chickweed (Stellaria media)
Summary of the method: as §1

barnyard grass [19] = assay: Test Example 4: herbicidal effect by soil treatment (Table 19, symbol H); format: in vivo, barnyard grass (Echinochloa crus-galli)
Summary of the method: as §1

chickweed [20] = assay: Test Example 5: herbicidal effect by foliage application, plastic box (Table 20, symbol P); format: in vivo, common chickweed (Stellaria media); conditions: foliage application, AAH 320 g/ha, three weeks after application
Summary of the method: as §2

green foxtail [21] = assay: Test Example 5: herbicidal effect by foliage application, plastic box (Table 20, symbol G); format: in vivo, green foxtail (Setaria viridis); conditions: foliage application
Summary of the method: as §2

persian speedwell [22] = assay: Test Example 5: herbicidal effect by foliage application, plastic box (Table 20, symbol R); format: in vivo, Persian speedwell (Veronica persica); conditions: foliage application
Summary of the method: as §2

blackgrass [23] = assay: Test Example 4: herbicidal effect by soil treatment (Table 19, symbol J); format: in vivo, blackgrass (Alopecurus myosuroides); conditions: 320 g/ha
Summary of the method: as §1

[24] = AAH 320 g/ha, three weeks after application
[25] = 320 g/ha, 3 weeks after application

CCCC(=O)Oc1c(C)nn(C)c(=O)c1-c1c(-c2ccc(C(F)(F)F)cc2OC)sc2ccccc12 [1-156]
F: southern crabgrass, herbicidal effect rating (southern crabgrass [1]; AAH 320 g/ha): 0 (Herbicidal rate of 5% or less (almost no effect)) | M: velvetleaf, herbicidal effect rating (velvetleaf [2]; AAH 320 g/ha): 0 (Herbicidal rate of 5% or less (almost no effect)) | L: windgrass, herbicidal effect (windgrass; [24]): 5 (Herbicidal rate of 90% or more (almost completely withered)) | O: lambsquarters, herbicidal effect rating (lambsquarters [3]; AAH 320 g/ha): 3 (Herbicidal rate of 40% or more and less than 70%) | M: velvetleaf, herbicidal effect (velvetleaf [4]; [24]): 0 (Herbicidal rate of 5% or less (almost no effect)) | herbicidal effect on H (barnyard grass), rating 0-5 (barnyard grass [5]): 3 (Herbicidal rate of 40% or more and less than 70%) | herbicidal effect on E (rice flat sedge), rating 0-5 (rice flat sedge): 3 (Herbicidal rate of 40% or more and less than 70%) | O: lambsquarters, herbicidal effect (lambsquarters [6]; [24]): 2 (Herbicidal rate of 20% or more and less than 40%) | K: Italian ryegrass, herbicidal effect (Italian ryegrass [7]; [24]): 4 (Herbicidal rate of 70% or more and less than 90%) | J: blackgrass, herbicidal effect (blackgrass [8]; [24]): 0 (Herbicidal rate of 5% or less (almost no effect)) | N: redroot pigweed, herbicidal effect rating (redroot pigweed [9]; AAH 320 g/ha): 0 (Herbicidal rate of 5% or less (almost no effect)) | herbicidal effect on D (Chinese sprangletop), rating 0-5 (Chinese sprangletop): 3 (Herbicidal rate of 40% or more and less than 70%) | H: barnyard grass, herbicidal effect (barnyard grass [10]; [24]): 1 (Herbicidal rate of 5% or more and less than 20%) | N: redroot pigweed, herbicidal effect (redroot pigweed [11]): 3 (Herbicidal rate of 40% or more and less than 70%) | G: green foxtail, herbicidal effect rating (green foxtail [12]; AAH 320 g/ha): 0 (Herbicidal rate of 5% or less (almost no effect)) | K: Italian ryegrass, herbicidal effect rating (Italian ryegrass [13]; AAH 320 g/ha): 3 (Herbicidal rate of 40% or more and less than 70%) | I: wild oat, herbicidal effect rating (wild oat [14]; AAH 320 g/ha): 0 (Herbicidal rate of 5% or less (almost no effect)) | I: wild oat, herbicidal effect (wild oat [15]; [24]): 3 (Herbicidal rate of 40% or more and less than 70%) | F: southern crabgrass, herbicidal effect (southern crabgrass [16]; [24]): 0 (Herbicidal rate of 5% or less (almost no effect)) | R: persian speedwell, herbicidal effect rating (persian speedwell [17]; AAH 320 g/ha): 0 (Herbicidal rate of 5% or less (almost no effect)) | P: chickweed, herbicidal effect rating (chickweed [18]; AAH 320 g/ha): 0 (Herbicidal rate of 5% or less (almost no effect)) | H: barnyard grass, herbicidal effect rating (barnyard grass [19]; AAH 320 g/ha): 0 (Herbicidal rate of 5% or less (almost no effect)) | P: chickweed, herbicidal effect (chickweed [20]): 5 (Herbicidal rate of 90% or more (almost completely withered)) | G: green foxtail, herbicidal effect (green foxtail [21]; [24]): 3 (Herbicidal rate of 40% or more and less than 70%) | R: persian speedwell, herbicidal effect (persian speedwell [22]; [24]): 3 (Herbicidal rate of 40% or more and less than 70%)

COCCC(=O)Oc1c(C)nn(C)c(=O)c1-c1c(-c2ccc(F)cc2)sc2ccc(F)cc12 [2-003]
herbicidal effect rating, F: southern crabgrass (southern crabgrass [1]; 320 g/ha): 5 (Herbicidal rate of 90% or more (almost completely withered)) | herbicidal effect rating, M: velvetleaf (velvetleaf [2]; 320 g/ha): 5 (Herbicidal rate of 90% or more (almost completely withered)) | effect on windgrass (L) (windgrass; [25]): 4 (Herbicidal rate of 70% or more and less than 90%) | herbicidal effect rating, O: lambsquarters (lambsquarters [3]; 320 g/ha): 5 (Herbicidal rate of 90% or more (almost completely withered)) | effect on velvetleaf (M) (velvetleaf [4]; [25]): 5 (Herbicidal rate of 90% or more (almost completely withered)) | herbicidal effect on H (barnyard grass), rating 0-5 (barnyard grass [5]): 5 (Herbicidal rate of 90% or more (almost completely withered)) | herbicidal effect on E (rice flat sedge), rating 0-5 (rice flat sedge): 5 (Herbicidal rate of 90% or more (almost completely withered)) | effect on lambsquarters (O) (lambsquarters [6]; [25]): 5 (Herbicidal rate of 90% or more (almost completely withered)) | effect on Italian ryegrass (K) (Italian ryegrass [7]; [25]): 4 (Herbicidal rate of 70% or more and less than 90%) | effect on blackgrass (J) (blackgrass [8]; [25]): 4 (Herbicidal rate of 70% or more and less than 90%) | herbicidal effect rating, N: redroot pigweed (redroot pigweed [9]; 320 g/ha): 5 (Herbicidal rate of 90% or more (almost completely withered)) | herbicidal effect on D (Chinese sprangletop), rating 0-5 (Chinese sprangletop): 3 (Herbicidal rate of 40% or more and less than 70%) | effect on barnyard grass (H) (barnyard grass [10]; [25]): 5 (Herbicidal rate of 90% or more (almost completely withered)) | herbicidal effect rating, G: green foxtail (green foxtail [12]; 320 g/ha): 5 (Herbicidal rate of 90% or more (almost completely withered)) | herbicidal effect rating, K: Italian ryegrass (Italian ryegrass [13]; 320 g/ha): 5 (Herbicidal rate of 90% or more (almost completely withered)) | herbicidal effect rating, I: wild oat (wild oat [14]; 320 g/ha): 0 (Herbicidal rate of 5% or less (almost no effect)) | effect on wild oat (I) (wild oat [15]; [25]): 2 (Herbicidal rate of 20% or more and less than 40%) | effect on southern crabgrass (F) (southern crabgrass [16]; [25]): 5 (Herbicidal rate of 90% or more (almost completely withered)) | herbicidal effect rating, R: persian speedwell (persian speedwell [17]; 320 g/ha): 4 (Herbicidal rate of 70% or more and less than 90%) | herbicidal effect rating, P: chickweed (chickweed [18]; 320 g/ha): 3 (Herbicidal rate of 40% or more and less than 70%) | herbicidal effect rating, H: barnyard grass (barnyard grass [19]; 320 g/ha): 5 (Herbicidal rate of 90% or more (almost completely withered)) | herbicidal effect rating, J: blackgrass (blackgrass [23]): 3 (Herbicidal rate of 40% or more and less than 70%) | effect on green foxtail (G) (green foxtail [21]; [25]): 5 (Herbicidal rate of 90% or more (almost completely withered)) | effect on persian speedwell (R) (persian speedwell [22]; [25]): 5 (Herbicidal rate of 90% or more (almost completely withered))
